Experimental data: patent US10934303B2, “Aryl ethene derivative and pharmaceutical composition containing same as active ingredient” (priority 2016, dated 2021)

Key:
NIS mRNA = experiment: Quantitative RT-PCR, NIS mRNA in CAL62 cells; format: cell-based
Method: (§1) Total RNA was separated using Trizol (Invitrogen, Carlsbad, Calif.). Total RNA (2 ug) was reverse-transcribed into cDNA with RevertAid First Strand cDNA Synthesis Kit (Thermo Scientific, Pittsburgh, Pa.). Genes were amplified with a ViiA 7 Real-Time PCR System instrument (Applied Biosystems) using the primer of each target gene and YBR Green PCR master mix (Applied Biosystems, Foster City, Calif.), using a cDNA template. The primer sequence of each target gene is as follows: ERRγ (forward, 5′-CAG ACG CCA GTG GGA GCT A-3′; reverse, 5′-TGGCGAGTCAAGTCCGTTCT-3′), NIS (forward, 5′-TCTAACCGATGCTCACCTCTTCTG-3′; reverse, 5′-AGATGATGGCACCTCCTTGAACC-3′), and acidic ribosomal protein 36B4 (forward, 5′-CCA CGC TGC TGA ACA TGC T-3′; reverse, 5′-TCGAACACCTGCTGGATGAC-3′). Each target gene was normalized using a 36B4 gene.

GST-bound ERR alpha LBD = GST-bound ERR alpha LBD (Homo sapiens (Human), UniProt P11474); details: TR-FRET, PGC1a coactivator; read-out: Binding Assay, IC50 ERRα
Sequence of GST-bound ERR alpha LBD (P11474 193-421): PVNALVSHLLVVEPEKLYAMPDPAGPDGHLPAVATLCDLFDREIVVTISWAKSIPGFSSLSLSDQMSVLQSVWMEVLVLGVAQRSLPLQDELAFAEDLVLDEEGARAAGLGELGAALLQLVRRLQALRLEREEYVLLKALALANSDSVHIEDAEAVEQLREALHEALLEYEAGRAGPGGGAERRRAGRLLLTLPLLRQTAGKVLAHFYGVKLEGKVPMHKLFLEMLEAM
Method: The arylethene derivative of the present invention was sequentially added to a 384 well plate from a concentration of 10 μM to a final concentration of two-fold dilution. […] After all reagents were added, a reaction was carried out with gentle shaking at 20° C. for 1 hour, and after the reaction, a binding activity was measured by a TR-FRET method.

[1] = test system: CAL-62 anaplastic thyroid cancer cell line; format: cell-based; details: for each concentration and each time
ERRγ mRNA = experiment: Quantitative RT-PCR, ERRγ mRNA in CAL62 cells; format: cell-based
Method: as §1

CYP2D6 = CYP2D6 (Homo sapiens (Human), UniProt P10635); experiment: Cytochrome P450 activity inhibition, CYP2D6; format: in vitro ADME; details: 10 μM, human liver microsomes, Dextromethorphan substrate
Sequence of CYP2D6 (P10635 whole entry): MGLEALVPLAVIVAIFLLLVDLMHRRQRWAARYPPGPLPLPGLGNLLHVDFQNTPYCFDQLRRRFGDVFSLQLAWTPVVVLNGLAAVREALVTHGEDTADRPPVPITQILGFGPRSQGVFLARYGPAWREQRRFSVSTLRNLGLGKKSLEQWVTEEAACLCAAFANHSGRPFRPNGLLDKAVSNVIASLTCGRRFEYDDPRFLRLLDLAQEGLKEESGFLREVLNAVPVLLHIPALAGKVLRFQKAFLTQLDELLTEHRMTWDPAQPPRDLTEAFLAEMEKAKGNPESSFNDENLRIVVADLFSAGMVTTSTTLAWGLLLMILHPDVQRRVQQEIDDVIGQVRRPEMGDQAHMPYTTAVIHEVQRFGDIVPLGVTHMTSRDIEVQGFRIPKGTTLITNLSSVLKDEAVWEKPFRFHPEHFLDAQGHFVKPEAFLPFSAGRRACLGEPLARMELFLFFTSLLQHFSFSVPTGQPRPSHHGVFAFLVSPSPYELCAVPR
Description: (§2) 1) Cytochrome P450 (CYP450) Activity Inhibition Evaluation

NIS protein = experiment: Western blot, total and membrane-localized NIS protein in CAL62 cells; format: cell-based
CYP1A2 = CYP1A2 (Homo sapiens (Human), UniProt P05177); experiment: Cytochrome P450 activity inhibition, CYP1A2; format: in vitro ADME; details: 10 μM, human liver microsomes, Phenacetin substrate
Sequence of CYP1A2 (P05177 whole entry): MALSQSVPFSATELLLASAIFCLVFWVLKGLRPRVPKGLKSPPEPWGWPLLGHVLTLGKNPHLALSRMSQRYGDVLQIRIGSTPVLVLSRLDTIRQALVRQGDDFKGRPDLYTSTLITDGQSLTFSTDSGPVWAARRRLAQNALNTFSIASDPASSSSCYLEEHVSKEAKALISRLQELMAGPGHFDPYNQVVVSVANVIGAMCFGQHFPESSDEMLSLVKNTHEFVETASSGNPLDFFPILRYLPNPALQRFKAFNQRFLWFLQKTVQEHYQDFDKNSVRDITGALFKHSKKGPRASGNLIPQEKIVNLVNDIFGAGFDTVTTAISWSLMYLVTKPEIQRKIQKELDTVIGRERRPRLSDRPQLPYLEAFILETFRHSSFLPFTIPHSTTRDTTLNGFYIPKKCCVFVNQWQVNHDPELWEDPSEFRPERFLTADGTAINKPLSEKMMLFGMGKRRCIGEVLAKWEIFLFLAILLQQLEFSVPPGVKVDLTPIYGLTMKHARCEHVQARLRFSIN
Description: as §2

in vitro = in vitro ADME; details: PBS pH 7.4, 25° C., 5 hours
Method: 3) Parallel Artificial Membrane Permeability Assay (PAMPA) Evaluation
PAMPA is a method which has been developed for testing cell membrane permeability of a material in a test tube, and has been performed using a lipid tri-layer PVDF membrane available from Corning Gentest (NY, US), the used reagents were all purchased from Sigma (MO, US). First, a test material is diluted in PBS (pH 7.4) to a final concentration of 10 mM, 300 mL of the solution is added to the bottom well of a 96-transwell equipped with a PVDF membrane, and 200 mL of PBS is added to the upper well. Then, a plate is reacted at 25° C. for 5 hours, 20 mL of the solution in each well is transferred to a new container, and 80 mL of acetonitrile containing an internal standard material (4 mM chloropropamide) is added thereto. A concentration of the material in the solution is analyzed using LC-MS/MS (ThermoFisher Scientific, MO, US), and the transmittance of the material is calculated according to the equation reported in the reference document.

CAL-62/effluc tumor [2] = experiment: 125I bio-distribution study in CAL-62/effluc mouse tumor model; format: in vivo, Nude mice (Balb/c nu/nu)
Method: (§3) Nude mice (Balb/c nu/nu, female, 6 weeks old) were used, and all animals were normally raised in DMRC center animal laboratory of Kyungbuk National University Hospital in Chilgok. 5×10^6 CAL-62/effluc cells were subcutaneously injected into the left femoral region of the nude mouse to form a tumor. The tumor was extracted, divided into small pieces (20 mg or more), and then intradermally injected into the nude mouse to form a tumor.
After 4 hours of administration, all organs including a parent tumor were extracted, and each organ was weighed. Thereafter, each organ was transferred to a 5 mL test tube, and radioactivity in the organ was measured using a gamma counter.

CYP2C19 = CYP2C19 (Homo sapiens (Human), UniProt P33261); experiment: Cytochrome P450 activity inhibition, CYP2C19; format: in vitro ADME; details: 10 μM, human liver microsomes, S-mephenytoin substrate
Sequence of CYP2C19 (P33261 whole entry): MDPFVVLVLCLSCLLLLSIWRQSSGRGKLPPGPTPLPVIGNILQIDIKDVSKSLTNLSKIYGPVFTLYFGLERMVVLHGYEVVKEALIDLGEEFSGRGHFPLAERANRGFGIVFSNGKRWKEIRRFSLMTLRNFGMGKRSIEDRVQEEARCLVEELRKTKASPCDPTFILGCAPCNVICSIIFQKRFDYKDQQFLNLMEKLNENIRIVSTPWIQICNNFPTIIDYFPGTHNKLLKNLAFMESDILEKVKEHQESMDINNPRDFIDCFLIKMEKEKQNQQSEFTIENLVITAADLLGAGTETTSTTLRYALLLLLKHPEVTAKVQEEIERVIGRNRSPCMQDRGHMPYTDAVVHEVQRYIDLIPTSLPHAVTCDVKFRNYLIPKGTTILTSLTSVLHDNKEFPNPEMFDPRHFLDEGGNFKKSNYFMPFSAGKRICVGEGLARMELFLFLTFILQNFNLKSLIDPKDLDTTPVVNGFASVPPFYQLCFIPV
Description: as §2

in vivo = format: in vivo; details: rat
CAL62 cells = experiment: Clonogenic assay with 131I; format: cell-based; details: CAL62 cells, single agent
Method: The cells were plated in a 6-well plate, and allowed to stand for 24 hours. […] The cells were washed with cold bHBSS, and allowed to stand in a normalized culture medium for a time corresponding to six doublings. Finally, the cells were fixed in a 4% paraformaldehyde (PFA) solution and stained with 0.05% crystal violet.

CYP2C9 = CYP2C9 (Homo sapiens (Human), UniProt P11712); experiment: Cytochrome P450 activity inhibition, CYP2C9; format: in vitro ADME; details: 10 μM, human liver microsomes, Diclofenac substrate
Sequence of CYP2C9 (P11712 whole entry): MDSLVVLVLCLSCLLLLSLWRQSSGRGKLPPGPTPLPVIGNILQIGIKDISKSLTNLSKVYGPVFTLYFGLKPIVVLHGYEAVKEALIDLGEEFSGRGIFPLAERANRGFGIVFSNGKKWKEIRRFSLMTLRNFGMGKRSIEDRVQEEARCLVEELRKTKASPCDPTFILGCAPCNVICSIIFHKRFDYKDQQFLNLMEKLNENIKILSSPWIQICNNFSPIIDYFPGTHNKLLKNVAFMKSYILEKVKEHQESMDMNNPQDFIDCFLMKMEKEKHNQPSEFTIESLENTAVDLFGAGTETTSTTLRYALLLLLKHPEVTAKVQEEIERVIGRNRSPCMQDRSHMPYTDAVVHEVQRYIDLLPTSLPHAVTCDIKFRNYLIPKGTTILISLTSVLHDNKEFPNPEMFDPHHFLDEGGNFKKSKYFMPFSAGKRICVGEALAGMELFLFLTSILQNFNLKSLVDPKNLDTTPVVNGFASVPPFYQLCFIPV
Description: as §2

CYP3A4 = CYP3A4 (Homo sapiens (Human), UniProt P08684); experiment: Cytochrome P450 activity inhibition, CYP3A4; format: in vitro ADME; details: 10 μM, human liver microsomes, Midazolam substrate
Sequence of CYP3A4 (P08684 whole entry): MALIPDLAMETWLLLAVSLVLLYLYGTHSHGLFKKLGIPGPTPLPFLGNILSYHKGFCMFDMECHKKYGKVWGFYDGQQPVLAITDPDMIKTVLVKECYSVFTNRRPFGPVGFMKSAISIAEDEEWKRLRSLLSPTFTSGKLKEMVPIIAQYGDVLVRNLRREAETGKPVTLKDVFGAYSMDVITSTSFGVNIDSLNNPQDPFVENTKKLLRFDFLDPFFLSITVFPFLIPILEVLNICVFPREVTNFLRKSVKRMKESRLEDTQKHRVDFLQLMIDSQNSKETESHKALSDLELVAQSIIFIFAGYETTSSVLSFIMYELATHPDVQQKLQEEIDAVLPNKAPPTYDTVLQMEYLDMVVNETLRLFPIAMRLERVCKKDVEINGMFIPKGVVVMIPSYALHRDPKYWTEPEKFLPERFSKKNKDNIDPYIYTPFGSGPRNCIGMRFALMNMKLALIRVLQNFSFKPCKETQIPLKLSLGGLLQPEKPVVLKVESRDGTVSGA
Description: as §2

hERG channel = hERG channel (Homo sapiens (Human), UniProt Q12809); details: read-out: hERG IC50; fluorescence polarization assay
ERRγ = format: cell-based
ERRγ protein = experiment: Western blot, ERRγ protein in CAL62 cells; format: cell-based; details: 24 hours
CAL-62/effluc tumor [3] = experiment: Tumor growth by bioluminescent imaging in CAL-62/effluc mouse tumor model; format: in vivo, Nude mice (Balb/c nu/nu); details: 100 mpk, 200 mpk orally daily for 6 days
Method: as §3
In order to observe a difference in tumor growth between before administration and after administration, optical imaging (bioluminescent imaging) was performed.
For obtaining an optical image, D-luciferin (3 mg/mouse) was intraperitoneally injected to the mouse. After about 10 minutes of injection, the mouse was anesthetized by inhalation (I-2% isoflurane gas), and then positioned on a IVIS Lumina III (PerkinElmer) imaging bed. The time for obtaining the image was automatically set, and then an optical image was obtained.

CC(C)N1CCN(c2ccc(C(=C(CCCO)c3ccccc3)c3ccc(O)cc3)cc2)CC1 [Compound 18a]
NIS mRNA expression, increase compared with vehicle-treated group (NIS mRNA): about 2 times | IC50 (GST-bound ERR alpha LBD): > 10 µM | radioactive iodine uptake in CAL62 cells [1]: significant increase | ERRγ mRNA expression, decrease compared with vehicle treated group (ERRγ mRNA): about 16 times | CYP inhibition (% of control) 2D6 (CYP2D6): 63.5 % of control | increase in membrane fully glycosylated NIS protein (NIS protein; biotinylated membrane protein): 8.1 times | increase in membrane partially glycosylated NIS protein (NIS protein; biotinylated membrane protein): 6.4 times | total NIS protein expression, change compared with vehicle treated group (NIS protein; text says significantly increased, then 'decreased by'): about 1.9 times | CYP inhibition (% of control) 1A2 (CYP1A2): 88 % of control | Permeability Pampa (in vitro): 0.46 10^−6 cm/s | radioactive uptake in CAL62 tumor, increase compared with vehicle group (CAL-62/effluc tumor [2]; 100 mpk orally daily for 6 days): 4.4 times | radioactive uptake in CAL62 tumor, increase compared with vehicle group (CAL-62/effluc tumor [2]; 200 mpk orally daily for 6 days): 16.2 times | CYP inhibition (% of control) 2C19 (CYP2C19): 81.2 % of control | AUCINF (in vivo; IV, 1 mg/kg): 0.49 μMh | AUCall (in vivo; IV, 1 mg/kg): 0.42 μMh | Vss (in vivo; IV, 1 mg/kg): 25.2 L/kg | t1/2 (in vivo; IV, 1 mg/kg): 3.8 h | AUCINF (in vivo; PO, 10 mg/kg): 1.29 μMh | AUCall (in vivo; PO, 10 mg/kg): 0.81 μMh | BA (in vivo; PO, 10 mg/kg): 21.4% | Tmax (in vivo; PO, 10 mg/kg): 1.1 h | Cmax (in vivo; PO, 10 mg/kg, read-out: Cmax): 210 nM | cytotoxic effect, alone (clone formation assay) (CAL62 cells): minimal cytotoxic effect | CYP inhibition (% of control) 2C9 (CYP2C9): 86.1 % of control | CYP inhibition (% of control) 3A4 (CYP3A4): 66.4 % of control | IC50 (hERG channel): 18.7 µM | Functional Assay at 10 μM (% of control), Cpds (ERRγ; 10 μM, 24 hours, AD293): 4.83 % of control | Functional Assay, Cpds/Ref 5182 (ERRγ; activity relative to reference compound GSK5182, 10 μM): 1.18 | ERRγ protein expression, decrease compared with vehicle treated group (ERRγ protein): about 2.8 times | tumor growth (optical imaging) (CAL-62/effluc tumor [3]): significant tumor growth inhibitory efficiency
